Results from ChEMBL document CHEMBL1697781, “Assessment of the health effects of chemicals in humans: II. Construction of an adverse effects database for QSAR modeling” (Curr Drug Discov Technol, 2004).

Key:
Conditions in all cases: human; call rule not given here
Hepatotoxicity [1] = assay: FDA HLAED, liver enzyme composite activity
Hepatotoxicity [2] = assay: FDA HLAED, serum glutamic oxaloacetic transaminase (SGOT) increase
Hepatotoxicity [3] = assay: FDA HLAED, lactate dehydrogenase (LDH) increase
Hepatotoxicity [4] = assay: FDA HLAED, gamma-glutamyl transferase (GGT) increase
Hepatotoxicity [5] = assay: FDA HLAED, alkaline phosphatase increase
Hepatotoxicity [6] = assay: FDA HLAED, serum glutamic pyruvic transaminase (SGPT) increase
Throughout, for GGT Increase - Index Value: reference of the scale not given here.
Throughout, for LDH Increase - Index Value: reference of the scale not given here.

SMILES | Composite Activity - Active (Hepatotoxicity [1]) | Composite Activity - Marginal (Hepatotoxicity [1]) | Composite Activity - Score (Hepatotoxicity [1]) | SGOT Increase - Activity Score (Hepatotoxicity [2]) | SGOT Increase - Index Value (Hepatotoxicity [2]) | SGOT Increase - Number of Reports (Hepatotoxicity [2]) | LDH Increase - Activity Score (Hepatotoxicity [3]) | LDH Increase - Index Value (Hepatotoxicity [3]) | LDH Increase - Number of Reports (Hepatotoxicity [3]) | GGT Increase - Activity Score (Hepatotoxicity [4]) | GGT Increase - Index Value (Hepatotoxicity [4]) | GGT Increase - Number of Reports (Hepatotoxicity [4]) | Alkaline Phosphatase Increase - Activity Score (Hepatotoxicity [5]) | Alkaline Phosphatase Increase - Index Value (Hepatotoxicity [5]) | Alkaline Phosphatase Increase - Number of Reports (Hepatotoxicity [5]) | SGPT Increase - Activity Score (Hepatotoxicity [6]) | SGPT Increase - Index Value (Hepatotoxicity [6]) | SGPT Increase - Number of Reports (Hepatotoxicity [6])
COc1cc(CC2c3c(cc(OC)c(OC)c3OC)CC[N+]2(C)CCCOC(=O)CCC(=O)OCCC[N+]2(C)CCc3cc(OC)c(OC)c(OC)c3C2Cc2cc(OC)c(OC)c(OC)c2)cc(OC)c1OC.[Cl-].[Cl-] (stereo unspecified) [DOXACURIUM CHLORIDE] | 0 | 0 | Inactive | Inactive | 0 | < 4 | Inactive | 0 | < 4 | Inactive | 0 | < 4 | Inactive | 0 | < 4 | Inactive | 0 | < 4
COc1cc2nc(N3CCN(C(=O)C4COc5ccccc5O4)CC3)nc(N)c2cc1OC (stereo unspecified) [DOXAZOSIN] | 0 | 0 | Inactive | Inactive | 0.3 | < 4 | Inactive | 0.2 | < 4 | Inactive | 0.2 | < 4 | Inactive | 0.2 | < 4 | Inactive | 0.5 | >= 4
CCCCCc1cc(O)c2c(c1)OC(C)(C)[C@@H]1CCC(C)=C[C@@H]21 [DRONABINOL] | 0 | 0 | Inactive | Inactive | 0 | < 4 | Inactive | 0 | < 4 | Inactive | 0 | < 4 | Inactive | 0 | < 4 | Inactive | 0 | < 4
Clc1ccc(COC(Cn2ccnc2)c2ccc(Cl)cc2Cl)cc1 (stereo unspecified) [ECONAZOLE] | 0 | 0 | Inactive | Inactive | 0 | < 4 | Inactive | 0 | < 4 | Inactive | 0 | < 4 | Inactive | 0 | < 4 | Inactive | 0 | < 4
COc1ccc(C(=O)Nc2ccccc2CCC2CCCCN2C)cc1 (stereo unspecified) [ENCAINIDE] | 3 | 1 | Active | Active | 12.4 | >= 4 | Active | 4.1 | >= 4 | Inactive | 0 | < 4 | Marginally Active | 3.6 | >= 4 | Active | 7.7 | >= 4
CCn1cc(C(=O)O)c(=O)c2cc(F)c(N3CCNCC3)nc21 [ENOXACIN] | 0 | 0 | Inactive | Inactive | 0 | < 4 | Inactive | 0 | < 4 | Inactive | 0 | < 4 | Inactive | 0 | < 4 | Inactive | 0 | < 4
CCCCC[C@H](O)/C=C/[C@@H]1[C@H]2C/C(=C/CCCC(=O)O)O[C@H]2C[C@H]1O [EPOPROSTENOL] | 0 | 0 | Inactive | Inactive | 0 | < 4 | Inactive | 0 | < 4 | Inactive | 0 | < 4 | Inactive | 0 | < 4 | Inactive | 0 | < 4
COC(=O)CCc1ccc(OCC(O)CNC(C)C)cc1 (stereo unspecified) [ESMOLOL] | 0 | 0 | Inactive | Inactive | 4.6 | < 4 | Inactive | 4.6 | < 4 | Inactive | 0 | < 4 | Inactive | 0 | < 4 | Inactive | 0 | < 4
Clc1ccc2c(c1)C(c1ccccc1)=NCc1nncn1-2 [ESTAZOLAM] | 0 | 0 | Inactive | Inactive | 0.8 | < 4 | Inactive | 0 | < 4 | Inactive | 0.8 | < 4 | Inactive | 0 | < 4 | Inactive | 0.8 | < 4
C[C@]12CC[C@@H]3c4ccc(OC(=O)c5ccccc5)cc4CC[C@H]3[C@@H]1CC[C@@H]2O [ESTRADIOL BENZOATE] | 0 | 0 | Inactive | Inactive | 2.8 | >= 4 | Inactive | 1.2 | >= 4 | Inactive | 0.3 | < 4 | Inactive | 1.5 | >= 4 | Inactive | 2.1 | >= 4
C[C@]12CC[C@@H]3c4ccc(O)cc4CC[C@H]3[C@@H]1CC[C@@H]2OC(=O)CCC1CCCC1 [ESTRADIOL CYPIONATE] | 0 | 0 | Inactive | Inactive | 2.8 | >= 4 | Inactive | 1.2 | >= 4 | Inactive | 0.3 | < 4 | Inactive | 1.5 | >= 4 | Inactive | 2.1 | >= 4
CCC(=O)Oc1ccc2c(c1)CC[C@@H]1[C@@H]2CC[C@]2(C)[C@@H](OC(=O)CC)CC[C@@H]12 [ESTRADIOL DIPROPIONATE] | 0 | 0 | Inactive | Inactive | 2.8 | >= 4 | Inactive | 1.2 | >= 4 | Inactive | 0.3 | < 4 | Inactive | 1.5 | >= 4 | Inactive | 2.1 | >= 4
